Where two headings read alike, the source gives them in different places.
How the values were obtained:
[1] = test system: 60 human cancer cell lines; experiment: NCI-60 one-dose screen; format: cell-based; details: single dose 10 μM
Protocol: (§1) The gold(III) complexes of this invention were screened by the National Cancer Institute (NCI, USA) against their panel of 60 different human cancer cell lines. These screens initially entail a one-dose test for the compound at a high concentration (10 μM; e.g. FIGS. 5, 6 and 7). Compounds with a good cytotoxicity profile in the one-dose screen are then subjected to a five-dose screen for the full panel of sixty human cancer cell lines (the so-called 5-dose NCI-60 screen). In the full five-dose screen, the compound concentration is varied in five doses from 10^−8 M to 10^−4 M in order to establish a dose-response function of percentage cell growth versus the concentration of the test agent. […] Similar data will shortly be available for compounds 1.1Y^1b and 1.5Y^1a as these derivatives are in 5-dose screens currently at the NCI.
The results of one-dose NCI-60 screens are noteworthy and merit some discussion as they quickly indicate activity profiles, cell-line specificity, and general cytotoxicity for the test agents across multiple human cancer cell lines. FIGS. 5, 6, and 7 set out the one-dose screening results for MA_AuPr (FIG. 5), KA_AumacroPr (FIG. 6), and KA_AuMelmPr (FIG. 7) obtained by the NCI. These three compounds are the parent derivatives that are representative of the three new types of gold(III) Schiff base chelate relevant to this invention. All other compounds synthesized as part of this invention have been similarly analyzed.

calf thymus DNA = experiment: Calf-thymus DNA titration (absorption hypochroism); format: binding
Protocol: FIG. 20 is a graph of the titration of MA_AuPr (1.1a) with calf-thymus DNA in aqueous pH 7 phosphate buffer at 37° C.
The hypochroism of the absorption band of the complex at 383 nm was monitored as a function of added ctDNA. […] Ka is the equilibrium binding constant in M^−1, Ct is the total Au(III) complex concentration, and s is the binding site size.

topoisomerase I = target: T1, topoisomerase I (Homo sapiens, UniProt P11387); experiment: Supercoiled plasmid DNA relaxation assay with human topoisomerase I; format: biochemical
T1 sequence (P11387 1-765): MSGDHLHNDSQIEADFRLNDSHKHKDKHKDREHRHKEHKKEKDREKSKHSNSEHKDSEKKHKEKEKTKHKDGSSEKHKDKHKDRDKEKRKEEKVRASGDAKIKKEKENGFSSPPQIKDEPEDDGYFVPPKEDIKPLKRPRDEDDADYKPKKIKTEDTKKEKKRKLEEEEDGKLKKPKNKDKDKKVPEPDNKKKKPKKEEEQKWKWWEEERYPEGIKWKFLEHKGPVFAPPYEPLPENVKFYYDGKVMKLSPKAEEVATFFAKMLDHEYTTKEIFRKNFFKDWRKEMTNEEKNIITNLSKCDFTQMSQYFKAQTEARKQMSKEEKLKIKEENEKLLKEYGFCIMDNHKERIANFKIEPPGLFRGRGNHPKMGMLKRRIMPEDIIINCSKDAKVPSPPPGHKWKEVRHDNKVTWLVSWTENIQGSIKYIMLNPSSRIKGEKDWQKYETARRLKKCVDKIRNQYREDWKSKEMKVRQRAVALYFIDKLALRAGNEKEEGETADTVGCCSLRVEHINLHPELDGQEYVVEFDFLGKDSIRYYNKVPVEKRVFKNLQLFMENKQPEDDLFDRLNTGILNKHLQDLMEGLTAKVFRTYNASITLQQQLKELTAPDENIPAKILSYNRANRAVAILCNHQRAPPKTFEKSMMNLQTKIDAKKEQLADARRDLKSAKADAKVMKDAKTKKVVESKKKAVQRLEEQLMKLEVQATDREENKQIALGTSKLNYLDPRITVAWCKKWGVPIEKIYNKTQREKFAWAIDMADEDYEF
Protocol: FIG. 19 is a photograph of a gel showing the inhibition of human topoisomerase I by KA_AumacroPr as determined by supercoiled plasmid DNA relaxation assay (agarose gel electrophoresis).
Lanes 2-12 have 5U of topoisomerase I. The enzyme fully relaxes supercoiled (SC) DNA in lanes 3-8 for KA_AumacroPr concentrations ranging from 0-50 nM.
This is consistent with strong intercalative binding of KA_AumacroPr to the plasmid DNA probably before and after the action of topoisomerase I, and consequently inhibition of its normal turnover cycle.

HeLa cells = experiment: HeLa cell cytotoxicity dose-response; format: cell-based
Protocol: FIG. 9 is a graph of the dose-response curves (HeLa cells, pH 7.0, 37° C.) for three macrocyclic Au(III) chelates. IC50 values for the complexes against HeLa cells obtained from the least squares data fits (graph) are given in the 3rd column of the table.
A summary of the average cytotoxicity data over 60 human cancer cell lines for 1.1a-1.1c and comparison with selected commercial and patented cytotoxic agents is shown in Scheme 7. […] The more abrupt the curve, the harder the dose-response function.

human cancer cell lines = experiment: Cytotoxicity summary (NCI-60 or independent cytotoxicity screen), Scheme 19; format: cell-based
[2] = Hydrolysis in aqueous solution; format: physicochemical; details: aqueous / phosphate buffered aqueous solutions
Text: This is why binding to DNA of the intact chelate occurs (FIGS. 14 and 20). However, it is noteworthy that hydrolysis of a Au(III)-Npyrrole bond is a reaction that may be catalyzed by enzymes in plasma and could account for the plasma instability of MA_AuPr.

[3] = target: topoisomerase II (topo II) (Homo sapiens, UniProt P11388); experiment: Topoisomerase II (topo II) DNA cleavage assay with kinetoplast DNA, agarose gel; format: biochemical
Chain of topoisomerase II (topo II) (P11388 whole entry): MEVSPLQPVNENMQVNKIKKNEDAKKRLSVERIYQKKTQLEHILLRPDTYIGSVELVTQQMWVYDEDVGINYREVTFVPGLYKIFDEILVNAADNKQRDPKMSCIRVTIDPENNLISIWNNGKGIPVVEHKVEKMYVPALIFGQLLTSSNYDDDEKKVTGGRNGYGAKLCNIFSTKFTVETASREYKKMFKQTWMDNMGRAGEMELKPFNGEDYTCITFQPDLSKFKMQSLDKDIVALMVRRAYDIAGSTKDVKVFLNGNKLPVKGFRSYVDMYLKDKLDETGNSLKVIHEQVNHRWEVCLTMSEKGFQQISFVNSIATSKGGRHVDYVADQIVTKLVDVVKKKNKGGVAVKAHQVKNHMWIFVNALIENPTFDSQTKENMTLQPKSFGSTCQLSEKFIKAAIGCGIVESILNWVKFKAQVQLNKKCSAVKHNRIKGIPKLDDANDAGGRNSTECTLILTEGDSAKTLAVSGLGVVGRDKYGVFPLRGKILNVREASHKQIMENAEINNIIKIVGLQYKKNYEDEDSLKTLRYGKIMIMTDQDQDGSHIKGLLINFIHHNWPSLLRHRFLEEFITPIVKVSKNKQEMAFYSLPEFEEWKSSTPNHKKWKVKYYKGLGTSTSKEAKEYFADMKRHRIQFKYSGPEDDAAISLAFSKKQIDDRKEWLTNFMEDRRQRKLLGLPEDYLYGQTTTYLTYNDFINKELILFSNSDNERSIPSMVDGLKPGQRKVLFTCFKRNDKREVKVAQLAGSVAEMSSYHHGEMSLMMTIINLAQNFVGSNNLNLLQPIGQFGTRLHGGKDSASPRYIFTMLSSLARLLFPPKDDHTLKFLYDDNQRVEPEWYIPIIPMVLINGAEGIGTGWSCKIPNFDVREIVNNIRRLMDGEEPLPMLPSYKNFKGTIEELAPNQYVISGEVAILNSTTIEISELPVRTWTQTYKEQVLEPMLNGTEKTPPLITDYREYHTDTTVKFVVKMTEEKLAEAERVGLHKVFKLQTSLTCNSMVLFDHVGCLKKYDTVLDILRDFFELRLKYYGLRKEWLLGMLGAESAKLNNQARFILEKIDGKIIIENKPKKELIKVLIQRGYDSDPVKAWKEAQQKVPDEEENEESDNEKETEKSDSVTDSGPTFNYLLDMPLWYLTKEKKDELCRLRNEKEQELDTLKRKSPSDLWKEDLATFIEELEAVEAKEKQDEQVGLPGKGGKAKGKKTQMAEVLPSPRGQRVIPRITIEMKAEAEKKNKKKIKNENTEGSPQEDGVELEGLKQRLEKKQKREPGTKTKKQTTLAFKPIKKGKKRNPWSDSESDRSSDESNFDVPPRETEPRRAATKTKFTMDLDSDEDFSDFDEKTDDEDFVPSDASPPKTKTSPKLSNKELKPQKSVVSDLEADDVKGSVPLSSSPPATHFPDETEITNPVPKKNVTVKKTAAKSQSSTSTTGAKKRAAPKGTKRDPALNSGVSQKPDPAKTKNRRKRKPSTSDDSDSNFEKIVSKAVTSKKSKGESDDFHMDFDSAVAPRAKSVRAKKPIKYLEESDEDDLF
Protocol: FIG. 18 is a photograph of an agarose gel electrophoresis topoisomerase II (topo II) DNA cleavage assay (66 ng kinetoplast DNA, 4 U topo II) as a function of the concentration of KA_AumacroPr (complex 1.1Y^1a) (top) and a graph of a standard dose-response function fit of the experimental titration data (top gel) with (solid line) and without (dashed line) a Hill coefficient. The maximum ESD from triplicate measurements is shown (15%). Lanes 1-4 of the gel contain catenated DNA (no topo II), decatenated DNA (topo II present), decatenated DNA (solvent control), and linear DNA, respectively. The lane marked VP-16 contained DNA, topo II, and etoposide (VP-16). Band labels: I, catenated DNA; II, open-circular (OC) DNA; III, linear DNA; IV, closed-covalently circular (CCC) DNA. […]
The topo II inhibition assay for the Au(III) macrocycle KA_AumacroPr is shown above in FIG. 18.

[4] = test system: 60 human cancer cell lines; experiment: NCI-60 five-dose screen, mean cytotoxicity over 60 human cancer cell lines; format: cell-based; details: mean over 60 human cancer cell lines
Protocol: as §1
The mean cytotoxicity data summarized in Scheme 7 were compiled over 60 human cancer cell lines from the NCI database. […] The dose-response curves for the bis(pyrrolide-imine) chelates of the invention are steeper, or harder, than those of all the compounds compared in Scheme 7.

[5] = test system: panel of human cancer cell lines; details: cited from earlier work
[6] = test system: 3LL tumor (Lewis lung carcinoma); experiment: 3LL tumor growth in black mice; details: 20 days, 26 μmol/kg once weekly
[7] = test system: 60 human cancer cell lines; details: comparison drugs, NCI database, mean over 60 cell lines, cited from earlier work

4,4′-{propane-1,3-diylbis[nitrilo(E)methylylide]}bis(5-methylimidazol-1-ide)gold(III) hexafluorophosphate(V) [KA_AuMelmPr]
one-dose screening result [1]: Breast and leukemia cell lines were, as a group, the most sensitive

ClC1CN=Cc2ccc3[n]2[Au+][n]2c(ccc2-c2nc4ccccc4nc2-3)C=NC1.F[P-](F)(F)(F)(F)F (stereo not drawn) [Compound 1.1Y^1e, {13-chloro-12,14-dihydro-6,9:17,20-diepimino[1,6]diazacyclo-heptadecino[12,13-β]quinoxalinato}gold(III) hexafluorophosphate(V)]
Ka (calf thymus DNA) (calf thymus DNA; KA series: pH 7.0 15% DMSO-TRIS buffer at 25° C., listed as 1.1Y^1a): 2.8(2) × 10^6 M^−1 | Ka (calf thymus DNA) (calf thymus DNA; KA series: pH 7.0 15% DMSO-TRIS buffer at 25° C., listed as 1.1Y^1b): 1.49(8) × 10^6 M^−1 | action on human topoisomerase I (topoisomerase I; listed as 1.1Y^1b): catalytic inhibitor of human topoisomerase I | GI50 (HeLa cells): ~100 nM | IC50 (HeLa cells; pH 7.0, 37° C.): ~3000 nM | Cytotoxicity (human cancer cell lines): active

C1=[N+]2CC[N+]3=Cc4ccc[n]4[Au-]23[n]2cccc21.F[P-](F)(F)(F)(F)F [Compound 1.2a, 2,2′-{ethane-1,2-diylbis[nitrilo(E)methylylidene]}bis(pyrrol-1-ido)gold(III) hexafluorophosphate(V)]
hydrolysis [2]: water may displace a pyrrole ring from the Au(III) ion

C1=[N+]2CCC[N+]3=Cc4ccc5[n]4[Au-]23[n]2c1ccc2-c1nc2ccccc2nc1-5.F[P-](F)(F)(F)(F)F [KA_AumacroPr, {12,13-dihydro-14H-6,9:17,20-diepimino[1,6]diazacyclo-heptadecino[12,13-β]quinoxalinato}gold(III) hexafluorophosphate(V)]
action on human topoisomerase I (topoisomerase I): interferes with the normal operation of human topoisomerase I | concentrations at which the enzyme fully relaxes supercoiled DNA (topoisomerase I; 5U topoisomerase I): 0 to 50 nM | concentrations at which topoisomerase I exhibits abnormal and incomplete substrate relaxation (topoisomerase I; 5U topoisomerase I, up to 500 μM): ≥ 500 nM | one-dose screening result [1]: good cytotoxicity for the majority of the cell lines | IC50 ([3]; 66 ng kinetoplast DNA, 4 U topo II, read-out: IC50 (enzyme inhibition)): 4.8 µM | action on topo II ([3]; no trapped linear DNA cleavage products): pure catalytic inhibitor

F[P-](F)(F)(F)(F)F.OC1CN=Cc2ccc[n]2[Au+][n]2cccc2C=NC1 (stereo not drawn) [MA_AuOH, 2,2{(2-hydroxypropane-1,3-diyl)bis[nitrilo(E)methyl-ylidene]}bis(pyrrol-1-ido)gold(III) hexafluorophosphate(V)]
Ka (calf thymus DNA) (calf thymus DNA; MA series: pH 7.0 phosphate buffer at 37° C.): 1.43(3) × 10^5 M^−1 | one-dose screening result [1]: not sufficiently active | CC50 ([4]; 50% cell death, read-out: LC50 (the source's name)): > 100 µM | GI50 ([4]; 50% growth inhibition): > 100 µM | TGI (concentration for total growth inhibition) ([4]; 100% (total) growth inhibition, read-out: TGI or IC50): > 100 µM

C1=Cc2nc1c(-c1ccccc1)c1ccc([n-]1)c(-c1ccccc1)c1nc(c(-c3ccccc3)c3ccc([n-]3)c2-c2ccccc2)C=C1.[Au+3].[Cl-] [[Au(TPP)]Cl]
cytotoxicity to cancer cells versus non-cancerous cells ([5]; MTT assay, PBMCs and CCD-19Lu cells): at least ten-fold higher cytotoxicity

C1=Cc2nc1c(-c1ccccc1)c1ccc([nH]1)c(-c1ccccc1)c1nc(c(-c3ccccc3)c3ccc([nH]3)c2-c2ccccc2)C=C1 [[Zn^II(TPP)]]
IC50 ([5]; literature values): > 50 µM

N.N.[Cl][Pt][Cl] [cisplatin, cis-[PtCl2(NH3)2]]
reduction of 3LL tumor growth rate [6]: 76% | GI50 ([7]; 50% growth inhibition): 2000 nM | IC50 ([7]; read-out: TGI or IC50, total growth inhibition): 27 µM

— patent US9346832B2, “Gold complexes for use in the treatment of cancer” (University of Kwazulu-Natal, priority 2010, dated 2016)
